Data: US20250205373A1, “ENRICHED AND STABLE RADIOLIGAND THERAPY FORMULATIONS AND PHARMACEUTICAL COMPOSITIONS COMPRISING SAME” (Mariana Oncology Inc., priority 2023, published 2025)
Numbered stars: 1 amine (or outer) side, 2 acyl side, 3 side chain; on linkers, the order of the positions; unused ones are H or OH. Bridge positions count the residues as written; N and C are the ends. Square brackets hold non-standard residues; d marks the D form. Side chains are listed from the residue outwards. Peptide text beside a SMILES is read from it. * marks the point of attachment. Ala(1-CH2CO2H-4-piperidyl) = N[C@@H](CC1CCN(CC(=O)O)CC1)C(=O)O; Ala(piperidin-4-yl) = O=C([C@H](CC1CCN([*:3])CC1)N[*:1])[*:2]; X1 = CC(C)[C@H](N[*:1])C(=O)C[C@@H](Cc1ccc(O)cc1)C(=O)[*:2]; DOTA = O=C(O)CN1CCN(CC(=O)O)CCN(CC(=O)*)CCN(CC(=O)O)CC1; Trp(5-F) = N[C@@H](Cc1c[nH]c2ccc(F)cc12)C(=O)O; X2 = C[C@@H](c1ccccc1)[C@H](N[*:1])C(=O)[*:2]; Val(3-OH) = CC(C)(O)[C@H](N)C(=O)O; PEG4 = NCCOCCOCCOCCOCCC(=O)O; Tle = CC(C)(C)[C@H](N)C(=O)O; hLeu = CC(C)CC[C@H](N)C(=O)O

Target: T1, B7-H3 (41 g) (Homo sapiens, UniProt Q5ZPR3)
T1 sequence (Q5ZPR3 29-534): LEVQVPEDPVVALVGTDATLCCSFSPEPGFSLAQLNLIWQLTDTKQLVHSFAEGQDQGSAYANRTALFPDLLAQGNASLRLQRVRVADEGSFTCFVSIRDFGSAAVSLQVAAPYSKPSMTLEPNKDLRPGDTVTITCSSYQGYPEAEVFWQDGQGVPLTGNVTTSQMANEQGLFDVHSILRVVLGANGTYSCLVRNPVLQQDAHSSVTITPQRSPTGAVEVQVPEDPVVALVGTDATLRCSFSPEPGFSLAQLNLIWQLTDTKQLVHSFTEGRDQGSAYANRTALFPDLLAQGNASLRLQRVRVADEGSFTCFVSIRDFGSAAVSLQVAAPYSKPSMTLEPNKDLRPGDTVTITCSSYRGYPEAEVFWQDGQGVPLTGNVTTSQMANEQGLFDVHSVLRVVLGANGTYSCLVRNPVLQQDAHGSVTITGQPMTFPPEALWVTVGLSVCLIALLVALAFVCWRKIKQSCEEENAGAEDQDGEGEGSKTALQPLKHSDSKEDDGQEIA
Test: Binding of Compound 496 to B7-H3

## CC(=O)N[C@@H](CCC(C)C)C(=O)N[C@@H](Cc1ccc(O)cc1)C(=O)N[C@H]1CSSC[C@@H](C(=O)N[C@@H](Cc2c[nH]c3ccc(F)cc23)C(=O)N[C@H](C(=O)N[C@H](C(=O)N[C@H](CCC(=O)O)C(N)=O)C(C)(C)O)[C@@H](C)c2ccccc2)NC(=O)[C@H](Cc2ccc(O)cc2)CC(=O)[C@H](C(C)C)NC(=O)[C@H](CC(=O)O)NC(=O)[C@H](CC2CCN(C(=O)CCOCCOCCOCCOCCNC(=O)CN3CCN(CC(=O)O)CCN(CC(=O)O)CCN(CC(=O)O)CC3)CC2)NC(=O)[C@H](CC2CCN(CC(=O)O)CC2)NC(=O)CNC(=O)[C@H](C(C)(C)C)NC1=O [Compound 496] (Ac-[hLeu]YC[Tle]G[Ala(1-CH2CO2H-4-piperidyl)][Ala(piperidin-4-yl)]([PEG4-DOTA])D[X1]C[Trp(5-F)][X2][Val(3-OH)][dE]-NH2; disulfide 3-10)
B7-H3 (41 g) vs 21 g isoform
  selectivity over the 21 g isoform: selectivity over the 21 g isoform
B7-H3 (41 g), the predominant form expressed by tumor cells
  binding affinity: high affinity
